Key:
Test in all cases: Test B preemergence/postemergence greenhouse plant response rating 0 to 10
[1] = system: barley; format: in vivo, Hordeum vulgare; details: for Plant response rating, Barley: 0 to 10 scale
Method in brief: (§1)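 Both application timings were run together: seeds got compound preemergence, and established seedlings (two to eighteen cm) got it postemergence. Non-phytotoxic solvent carried the chemical. Ratings are visual, versus controls, at twelve to sixteen days.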

[2] = system: barnyardgrass; format: in vivo, Echinochloa crus-galli; details: for Plant response rating, Barnyardgrass: 0 to 10 scale
Method in brief: as §1

[3] = system: bedstraw; format: in vivo, Galium aparine; details: for Plant response rating, Bedstraw: 0 to 10 scale
Method in brief: as §1

[4] = system: blackgrass; format: in vivo, Alopecurus myosuroides; details: for Plant response rating, Blackgrass: 0 to 10 scale
Method in brief: as §1

[5] = system: cheatgrass; format: in vivo, Bromus secalinus; details: for Plant response rating, Cheatgrass: 0 to 10 scale
Method in brief: as §1

[6] = system: chickweed; format: in vivo, Stellaria media; details: for Plant response rating, Chickweed: 0 to 10 scale
Method in brief: as §1

[7] = system: cocklebur; format: in vivo, Xanthium pensylvanicum; details: for Plant response rating, Cocklebur: 0 to 10 scale
Method in brief: as §1

[8] = system: corn; format: in vivo, Zea mays; details: for Plant response rating, Corn: 0 to 10 scale
Method in brief: as §1

[9] = system: cotton; format: in vivo, Gossypium hirsutum; details: for Plant response rating, Cotton: 0 to 10 scale
Method in brief: as §1

[10] = system: crabgrass; format: in vivo, Digitaria spp.; details: for Plant response rating, Crabgrass: 0 to 10 scale
Method in brief: as §1

[11] = system: giant foxtail; format: in vivo, Setaria faberii; details: for Plant response rating, Giant foxtail: 0 to 10 scale
Method in brief: as §1

[12] = system: lambsquarters; format: in vivo, Chenopodium album; details: for Plant response rating, Lambsquarter: 0 to 10 scale
Method in brief: as §1

[13] = system: morningglory; format: in vivo, Ipomoea hederacea; details: for Plant response rating, Morningglory: 0 to 10 scale
Method in brief: as §1

[14] = system: rape; format: in vivo, Brassica napus; details: for Plant response rating, Rape: 0 to 10 scale
Method in brief: as §1

[15] = system: rice; format: in vivo, Oryza sativa; details: for Plant response rating, Rice: 0 to 10 scale
Method in brief: as §1

[16] = system: sorghum; format: in vivo, Sorghum bicolor; details: for Plant response rating, Sorghum: 0 to 10 scale
Method in brief: as §1

[17] = system: soybean; format: in vivo, Glycine max; details: for Plant response rating, Soybean: 0 to 10 scale
Method in brief: as §1

[18] = system: sugar beet; format: in vivo, Beta vulgaris; details: for Plant response rating, Sugar beet: 0 to 10 scale
Method in brief: as §1

[19] = system: velvetleaf; format: in vivo, Abutilon theophrasti; details: for Plant response rating, Velvetleaf: 0 to 10 scale
Method in brief: as §1

[20] = system: wheat; format: in vivo, Triticum aestivum; details: for Plant response rating, Wheat: 0 to 10 scale
Method in brief: as §1

[21] = system: wild buckwheat; format: in vivo, Polygonum convolvulus; details: for Plant response rating, Wild buckwheat: 0 to 10 scale
Method in brief: as §1

[22] = system: wild oat; format: in vivo, Avena fatua; details: for Plant response rating, Wild oat: 0 to 10 scale
Method in brief: as §1

[23] = system: purple nutsedge; format: in vivo, Cyperus rotundus; details: for Plant response rating, Nutsedge: 0 to 10 scale
Method in brief: as §1

With O=C1COc2cc(F)c(-c3nn4c(c3Br)CCCC4)cc2N1 [Compound 80] the “Plant response rating, Barley” value ([1]; POSTEMERGENCE, Rate 50 g/ha) was 3, the “Plant response rating, Barley” value ([1]; PREEMERGENCE, Rate 50 g/ha) was 0 and the “Plant response rating (0 to 10 scale), Barley” value ([1]; PREEMERGENCE, Rate 200 g/ha) was 0. The “Plant response rating, Barley” value ([1]; Rate 200 g/ha, POSTEMERGENCE) was 4, the “Plant response rating, Barnyardgrass” value ([2]; POSTEMERGENCE, Rate 50 g/ha) was 6 and the “Plant response rating, Barnyardgrass” value ([2]; PREEMERGENCE, Rate 50 g/ha) was 0. The “Plant response rating (0 to 10 scale), Barnyardgrass” value ([2]; PREEMERGENCE, Rate 200 g/ha) was 6, the “Plant response rating, Barnyardgrass” value ([2]; Rate 200 g/ha, POSTEMERGENCE) was 8 and the “Plant response rating, Bedstraw” value ([3]; POSTEMERGENCE, Rate 50 g/ha) was 8. For the same compound, the “Plant response rating, Bedstraw” value ([3]; PREEMERGENCE, Rate 50 g/ha) was 0, the “Plant response rating (0 to 10 scale), Bedstraw” value ([3]; PREEMERGENCE, Rate 200 g/ha) was 2 and the “Plant response rating, Bedstraw” value ([3]; Rate 200 g/ha, POSTEMERGENCE) was 10. The “Plant response rating, Blackgrass” value ([4]; POSTEMERGENCE, Rate 50 g/ha) was 3, the “Plant response rating, Blackgrass” value ([4]; PREEMERGENCE, Rate 50 g/ha) was 0 and the “Plant response rating (0 to 10 scale), Blackgrass” value ([4]; PREEMERGENCE, Rate 200 g/ha) was 3. The “Plant response rating, Blackgrass” value ([4]; Rate 200 g/ha, POSTEMERGENCE) was 6, the “Plant response rating, Cheatgrass” value ([5]; POSTEMERGENCE, Rate 50 g/ha) was 5 and the “Plant response rating, Cheatgrass” value ([5]; PREEMERGENCE, Rate 50 g/ha) was 2. For the same compound, the “Plant response rating (0 to 10 scale), Cheatgrass” value ([5]; PREEMERGENCE, Rate 200 g/ha) was 3, the “Plant response rating, Cheatgrass” value ([5]; Rate 200 g/ha, POSTEMERGENCE) was 6 and the “Plant response rating, Chickweed” value ([6]; POSTEMERGENCE, Rate 50 g/ha) was 4. For the same compound, the “Plant response rating, Chickweed” value ([6]; PREEMERGENCE, Rate 50 g/ha) was 0, the “Plant response rating (0 to 10 scale), Chickweed” value ([6]; PREEMERGENCE, Rate 200 g/ha) was 3 and the “Plant response rating, Chickweed” value ([6]; Rate 200 g/ha, POSTEMERGENCE) was 7. For the same compound, the “Plant response rating, Cocklebur” value ([7]; POSTEMERGENCE, Rate 50 g/ha) was 9, the “Plant response rating, Cocklebur” value ([7]; PREEMERGENCE, Rate 50 g/ha) was 0 and the “Plant response rating (0 to 10 scale), Cocklebur” value ([7]; PREEMERGENCE, Rate 200 g/ha) was 0. For the same compound, the “Plant response rating, Cocklebur” value ([7]; Rate 200 g/ha, POSTEMERGENCE) was 10, the “Plant response rating, Corn” value ([8]; POSTEMERGENCE, Rate 50 g/ha) was 4 and the “Plant response rating, Corn” value ([8]; PREEMERGENCE, Rate 50 g/ha) was 0. The “Plant response rating (0 to 10 scale), Corn” value ([8]; PREEMERGENCE, Rate 200 g/ha) was 0, the “Plant response rating, Corn” value ([8]; Rate 200 g/ha, POSTEMERGENCE) was 5 and the “Plant response rating, Cotton” value ([9]; POSTEMERGENCE, Rate 50 g/ha) was 10. The “Plant response rating, Cotton” value ([9]; PREEMERGENCE, Rate 50 g/ha) was 0, the “Plant response rating (0 to 10 scale), Cotton” value ([9]; PREEMERGENCE, Rate 200 g/ha) was 0 and the “Plant response rating, Cotton” value ([9]; Rate 200 g/ha, POSTEMERGENCE) was 10. The “Plant response rating, Crabgrass” value ([10]; POSTEMERGENCE, Rate 50 g/ha) was 4, the “Plant response rating, Crabgrass” value ([10]; PREEMERGENCE, Rate 50 g/ha) was 0 and the “Plant response rating (0 to 10 scale), Crabgrass” value ([10]; PREEMERGENCE, Rate 200 g/ha) was 3. For the same compound, the “Plant response rating, Crabgrass” value ([10]; Rate 200 g/ha, POSTEMERGENCE) was 6, the “Plant response rating, Giant foxtail” value ([11]; POSTEMERGENCE, Rate 50 g/ha) was 4 and the “Plant response rating, Giant foxtail” value ([11]; PREEMERGENCE, Rate 50 g/ha) was 0. The “Plant response rating (0 to 10 scale), Giant foxtail” value ([11]; PREEMERGENCE, Rate 200 g/ha) was 2, the “Plant response rating, Giant foxtail” value ([11]; Rate 200 g/ha, POSTEMERGENCE) was 7 and the “Plant response rating, Lambsquarter” value ([12]; POSTEMERGENCE, Rate 50 g/ha) was 10. The “Plant response rating, Lambsquarter” value ([12]; PREEMERGENCE, Rate 50 g/ha) was 10, the “Plant response rating (0 to 10 scale), Lambsquarter” value ([12]; PREEMERGENCE, Rate 200 g/ha) was 10 and the “Plant response rating, Lambsquarter” value ([12]; Rate 200 g/ha, POSTEMERGENCE) was 10. For the same compound, the “Plant response rating, Morningglory” value ([13]; POSTEMERGENCE, Rate 50 g/ha) was 10, the “Plant response rating, Morningglory” value ([13]; PREEMERGENCE, Rate 50 g/ha) was 5 and the “Plant response rating (0 to 10 scale), Morningglory” value ([13]; PREEMERGENCE, Rate 200 g/ha) was 10. For the same compound, the “Plant response rating, Morningglory” value ([13]; Rate 200 g/ha, POSTEMERGENCE) was 10, the “Plant response rating, Rape” value ([14]; POSTEMERGENCE, Rate 50 g/ha) was 10 and the “Plant response rating, Rape” value ([14]; PREEMERGENCE, Rate 50 g/ha) was 4. For the same compound, the “Plant response rating (0 to 10 scale), Rape” value ([14]; PREEMERGENCE, Rate 200 g/ha) was 10, the “Plant response rating, Rape” value ([14]; Rate 200 g/ha, POSTEMERGENCE) was 10 and the “Plant response rating, Rice” value ([15]; POSTEMERGENCE, Rate 50 g/ha) was 6. The “Plant response rating, Rice” value ([15]; PREEMERGENCE, Rate 50 g/ha) was 2, the “Plant response rating (0 to 10 scale), Rice” value ([15]; PREEMERGENCE, Rate 200 g/ha) was 4 and the “Plant response rating, Rice” value ([15]; Rate 200 g/ha, POSTEMERGENCE) was 8. The “Plant response rating, Sorghum” value ([16]; POSTEMERGENCE, Rate 50 g/ha) was 4, the “Plant response rating, Sorghum” value ([16]; PREEMERGENCE, Rate 50 g/ha) was 0 and the “Plant response rating (0 to 10 scale), Sorghum” value ([16]; PREEMERGENCE, Rate 200 g/ha) was 0. For the same compound, the “Plant response rating, Sorghum” value ([16]; Rate 200 g/ha, POSTEMERGENCE) was 6, the “Plant response rating, Soybean” value ([17]; POSTEMERGENCE, Rate 50 g/ha) was 8 and the “Plant response rating, Soybean” value ([17]; PREEMERGENCE, Rate 50 g/ha) was 0. For the same compound, the “Plant response rating (0 to 10 scale), Soybean” value ([17]; PREEMERGENCE, Rate 200 g/ha) was 0, the “Plant response rating, Soybean” value ([17]; Rate 200 g/ha, POSTEMERGENCE) was 9 and the “Plant response rating, Sugar beet” value ([18]; POSTEMERGENCE, Rate 50 g/ha) was 10. For the same compound, the “Plant response rating, Sugar beet” value ([18]; PREEMERGENCE, Rate 50 g/ha) was 8, the “Plant response rating (0 to 10 scale), Sugar beet” value ([18]; PREEMERGENCE, Rate 200 g/ha) was 9 and the “Plant response rating, Sugar beet” value ([18]; Rate 200 g/ha, POSTEMERGENCE) was 10. The “Plant response rating, Velvetleaf” value ([19]; POSTEMERGENCE, Rate 50 g/ha) was 9, the “Plant response rating, Velvetleaf” value ([19]; PREEMERGENCE, Rate 50 g/ha) was 9 and the “Plant response rating (0 to 10 scale), Velvetleaf” value ([19]; PREEMERGENCE, Rate 200 g/ha) was 10. For the same compound, the “Plant response rating, Velvetleaf” value ([19]; Rate 200 g/ha, POSTEMERGENCE) was 10, the “Plant response rating, Wheat” value ([20]; POSTEMERGENCE, Rate 50 g/ha) was 4 and the “Plant response rating, Wheat” value ([20]; PREEMERGENCE, Rate 50 g/ha) was 0. For the same compound, the “Plant response rating (0 to 10 scale), Wheat” value ([20]; PREEMERGENCE, Rate 200 g/ha) was 2, the “Plant response rating, Wheat” value ([20]; Rate 200 g/ha, POSTEMERGENCE) was 4 and the “Plant response rating, Wild buckwheat” value ([21]; POSTEMERGENCE, Rate 50 g/ha) was 10. The “Plant response rating, Wild buckwheat” value ([21]; PREEMERGENCE, Rate 50 g/ha) was 3, the “Plant response rating (0 to 10 scale), Wild buckwheat” value ([21]; PREEMERGENCE, Rate 200 g/ha) was 3 and the “Plant response rating, Wild buckwheat” value ([21]; Rate 200 g/ha, POSTEMERGENCE) was 10. The “Plant response rating, Wild oat” value ([22]; POSTEMERGENCE, Rate 50 g/ha) was 4, the “Plant response rating, Wild oat” value ([22]; PREEMERGENCE, Rate 50 g/ha) was 2 and the “Plant response rating (0 to 10 scale), Wild oat” value ([22]; PREEMERGENCE, Rate 200 g/ha) was 7. The “Plant response rating, Wild oat” value ([22]; Rate 200 g/ha, POSTEMERGENCE) was 5, the “Plant response rating, Nutsedge” value ([23]; POSTEMERGENCE, Rate 50 g/ha) was 2 and the “Plant response rating, Nutsedge” value ([23]; PREEMERGENCE, Rate 50 g/ha) was 0. The “Plant response rating (0 to 10 scale), Nutsedge” value ([23]; PREEMERGENCE, Rate 200 g/ha) was 0 and the “Plant response rating, Nutsedge” value ([23]; Rate 200 g/ha, POSTEMERGENCE) was 4.

Source: patent US6358885B1, “Substituted phenylheterocyclic herbicides” (Mississippi State University, priority 1992, dated 2002)
